Source: PubChem BioAssay AID266 (DTP/NCI, 2004)
Where “and” joins values, the source holds several entries; their conditions need not be identical. Identical values can stand only once. Inconclusive results are not listed.

Test system: Nude mice, LX-1 lung xenograft intrarenal, tumor weight T/C
Test: NCI In Vivo Anticancer Drug Screen. Data for tumor model Human Lung LX-1 Xenograft (intrarenal inoculation) in NU/NU BALB/C (nude) mice
Conditions: endpoint: mean tumor weight change, higher = larger tumour
Description: The antitumor activity of compounds was measured in mice bearing transplantable tumors. Survival or tumor size were measured and the results are expressed as the measurement made in the treated group (T) divided by the measurement made in the vehicle treated control group (C). The tumor model used in this assay is Human Lung LX-1 Xenograft (intrarenal inoculation) in NU/NU BALB/C (nude) mice

[1] = dose: 300.0 mg/kg/injection, schedule: Q04DX003 (sc), vehicle: saline with Tween-80
[2] = dose: 600.0 mg/kg/injection, schedule: Q04DX003 (sc), vehicle: saline with Tween-80
[3] = dose: 1200.0 mg/kg/injection, schedule: Q04DX003 (sc), vehicle: saline with Tween-80
[4] = dose: 2400.0 mg/kg/injection, schedule: Q04DX003 (sc), vehicle: saline with Tween-80
[5] = dose: 150.0 mg/kg/injection, schedule: Q04DX003 (sc), vehicle: Klucel (hydroxypropylcellulose) (HPC)
[6] = dose: 300.0 mg/kg/injection, schedule: Q04DX003 (sc), vehicle: Klucel (hydroxypropylcellulose) (HPC)
[7] = dose: 600.0 mg/kg/injection, schedule: Q04DX003 (sc), vehicle: Klucel (hydroxypropylcellulose) (HPC)
[8] = dose: 50.0 mg/kg/injection, schedule: Q04DX003 (sc), vehicle: saline
[9] = dose: 100.0 mg/kg/injection, schedule: Q04DX003 (sc), vehicle: saline
[10] = dose: 200.0 mg/kg/injection, schedule: Q04DX003 (sc), vehicle: saline
[11] = dose: 400.0 mg/kg/injection, schedule: Q01DX010 (sc), vehicle: saline with Tween-80
[12] = dose: 200.0 mg/kg/injection, schedule: Q01DX010 (sc), vehicle: saline with Tween-80

With `c1ccc2c(NCCCCCCCCNc3c4ccccc4nc4ccccc34)c3ccccc3nc2c1` the T/C (dose: 5.0 mg/kg/injection, schedule: Q01DX010 (sc), vehicle: Klucel (hydroxypropylcellulose) (HPC)) was 60 % of control, the T/C (dose: 10.0 mg/kg/injection, schedule: Q01DX010 (sc), vehicle: Klucel (hydroxypropylcellulose) (HPC)) was 76 % of control and the T/C (dose: 20.0 mg/kg/injection, schedule: Q01DX010 (sc), vehicle: Klucel (hydroxypropylcellulose) (HPC)) was 23 % of control. The T/C (dose: 40.0 mg/kg/injection, schedule: Q01DX010 (sc), vehicle: Klucel (hydroxypropylcellulose) (HPC)) was 36 % of control.

`N#CCCSC(=S)C1CCCC1=N` (centres undefined) was tested, and the T/C [1] was 84 % of control, the T/C [2] was 79 % of control and the T/C [3] was 102 % of control. For the same compound, the T/C [4] was 91 % of control.

For `O=NN(CCCl)C(=O)NCCCl`, the T/C (dose: 4.0 mg/kg/injection, schedule: Q01DX010 (ip), vehicle: saline) was 32 % of control and 48 % of control, the T/C (dose: 13.33 mg/kg/injection, schedule: Q04DX003 (ip), vehicle: saline) was 9 % of control and 10 % of control and the T/C (dose: 16.0 mg/kg/injection, schedule: Q01DX010 (ip), vehicle: saline) was -69 % of control and -87 % of control. The T/C (dose: 26.66 mg/kg/injection, schedule: Q04DX003 (ip), vehicle: saline) was -21 % of control.

For `CCNC(C)(C)C(SSS)c1ccco1` (centres undefined), the T/C [5] was 82 % of control, the T/C [6] was 84 % of control and the T/C [7] was 76 % of control.

`CCN(CC)CCNc1ccc(C)c2sc3ccccc3c(=O)c12` was tested, and the T/C (dose: 50.0 mg/kg/injection, schedule: Q01DX010 (sc), vehicle: saline) was 211 % of control.

In the case of `CC[As](=O)(O)CC`, the T/C (dose: 25.0 mg/kg/injection, schedule: Q04DX003 (sc), vehicle: saline) is reported as 77 % of control, the T/C [8] is reported as 82 % of control and the T/C [9] is reported as 51 % of control. The T/C [10] was 70 % of control.

`Cc1cc(NCCCCCCCNc2cc(C)nc3cc(N)ccc23)c2ccc(N)cc2n1` was tested, and the T/C (dose: 12.5 mg/kg/injection, schedule: Q01DX010 (sc), vehicle: saline with Tween-80) was 48 % of control and the T/C (dose: 25.0 mg/kg/injection, schedule: Q01DX010 (sc), vehicle: saline with Tween-80) was 11 % of control.

`O=C(CN1CCOCC1)Nc1nc(-c2ccc(Cl)cc2)cs1` was tested, and the T/C (dose: 100.0 mg/kg/injection, schedule: Q04DX003 (ip), vehicle: saline with Tween-80) was 118 % of control, the T/C (dose: 200.0 mg/kg/injection, schedule: Q04DX003 (ip), vehicle: saline with Tween-80) was 87 % of control and the T/C (dose: 400.0 mg/kg/injection, schedule: Q04DX003 (ip), vehicle: saline with Tween-80) was 106 % of control. For the same compound, the T/C (dose: 800.0 mg/kg/injection, schedule: Q04DX003 (ip), vehicle: saline with Tween-80) was 89 % of control.

In the case of `[N-]=[N+]=CC(=O)CCC(N)C(=O)O` (centres undefined), the T/C (dose: 0.05 mg/kg/injection, schedule: Q01DX010 (sc), vehicle: saline) is reported as 119 % of control, the T/C (dose: 0.05 mg/kg/injection, schedule: Q02DX005 (sc), vehicle: saline) is reported as 226 % of control and the T/C (dose: 0.1 mg/kg/injection, schedule: Q01DX010 (sc), vehicle: saline) is reported as 64 % of control. For the same compound, the T/C (dose: 0.1 mg/kg/injection, schedule: Q02DX005 (sc), vehicle: saline) was 187 % of control, the T/C (dose: 0.2 mg/kg/injection, schedule: Q02DX005 (sc), vehicle: saline) was 110 % of control and the T/C (dose: 0.4 mg/kg/injection, schedule: Q01DX010 (sc), vehicle: saline) was 34 % of control. The T/C (dose: 3.2 mg/kg/injection, schedule: Q02DX005 (sc), vehicle: saline) was 9 % of control.

In the case of `N=c1c(C(=O)OCc2ccccc2)ncc(CCl)n1O`, the T/C [1] is reported as 87 % of control, the T/C [2] is reported as 83 % of control and the T/C [3] is reported as 91 % of control. For the same compound, the T/C [4] was 81 % of control.

In the case of `O=NN(CCCl)C(=O)NC1OC(CO)C(O)C(O)C1O` (centres undefined), the T/C (dose: 5.0 mg/kg/injection, schedule: Q04DX003 (sc), vehicle: saline) is reported as 86 % of control, the T/C (dose: 10.0 mg/kg/injection, schedule: Q04DX003 (sc), vehicle: saline) is reported as 55 % of control and the T/C (dose: 20.0 mg/kg/injection, schedule: Q04DX003 (sc), vehicle: saline) is reported as 66 % of control.

`N[C@@H](Cc1ccc(N(CCCl)CCCl)cc1)C(=O)O` was tested, and the T/C (dose: 1.0 mg/kg/injection, schedule: Q01DX010 (sc), vehicle: saline) was 94 % of control, the T/C (dose: 2.0 mg/kg/injection, schedule: Q01DX010 (sc), vehicle: saline) was 47 % of control and the T/C (dose: 4.0 mg/kg/injection, schedule: Q01DX010 (sc), vehicle: saline) was 13 % of control. For the same compound, the T/C (dose: 8.0 mg/kg/injection, schedule: Q01DX010 (sc), vehicle: saline) was -19 % of control.

In the case of `Nc1ccn([C@@H](C=O)O[C@@H](C=O)CO)c(=O)n1`, the T/C [10] is reported as 108 % of control.

In the case of `CC(=O)NC(CCc1ccc(Cl)c(Cl)c1)c1cccc(O)c(=O)c1` (centres undefined), the T/C (dose: 50.0 mg/kg/injection, schedule: Q04DX003 (ip), vehicle: Klucel (hydroxypropylcellulose) (HPC)) is reported as 52 % of control, the T/C (dose: 100.0 mg/kg/injection, schedule: Q04DX003 (ip), vehicle: Klucel (hydroxypropylcellulose) (HPC)) is reported as 62 % of control and the T/C (dose: 200.0 mg/kg/injection, schedule: Q04DX003 (ip), vehicle: Klucel (hydroxypropylcellulose) (HPC)) is reported as 57 % of control.

With `CC1(CO)C(O)CCC2(C)C1CCC1CC3CC12CCC3(O)CO` (centres undefined) the T/C (dose: 50.0 mg/kg/injection, schedule: Q01DX010 (sc), vehicle: saline with Tween-80) was 86 % of control and the T/C [11] was 34 % of control.

`CCCC(=O)Oc1ccc(/C=N/NC(N)=S)nc1` was tested, and the T/C (dose: 100.0 mg/kg/injection, schedule: Q01DX010 (sc), vehicle: saline with Tween-80) was 66 % of control, the T/C [12] was 42 % of control and the T/C [11] was 19 % of control.

In the case of `CN(C)N=Nc1cccc(C(N)=O)c1`, the T/C (dose: 25.0 mg/kg/injection, schedule: Q04DX003 (sc), vehicle: Klucel (hydroxypropylcellulose) (HPC)) is reported as 20 % of control and the T/C (dose: 200.0 mg/kg/injection, schedule: Q04DX003 (sc), vehicle: Klucel (hydroxypropylcellulose) (HPC)) is reported as -93 % of control.

For `Oc1cc2ccccc2c(-c2c(O)c(O)cc3ccccc23)c1O`, the T/C [2] was 122 % of control, the T/C [3] was 95 % of control and the T/C [4] was 84 % of control.

For `NC1=NC(=O)N2CC12` (centres undefined), the T/C [8] was 101 % of control, the T/C [9] was 102 % of control and the T/C [10] was 108 % of control.

`O=C(O)CP(=O)(O)O` was tested, and the T/C (dose: 300.0 mg/kg/injection, schedule: Q04DX003 (sc), vehicle: saline) was 105 % of control, the T/C (dose: 600.0 mg/kg/injection, schedule: Q04DX003 (sc), vehicle: saline) was 156 % of control and the T/C (dose: 1200.0 mg/kg/injection, schedule: Q04DX003 (sc), vehicle: saline) was 106 % of control.

For `NCCCNCCSP(=O)(O)O`, the T/C [10] was 99 % of control, the T/C (dose: 400.0 mg/kg/injection, schedule: Q04DX003 (sc), vehicle: saline) was 78 % of control and the T/C (dose: 800.0 mg/kg/injection, schedule: Q04DX003 (sc), vehicle: saline) was 80 % of control.

`COc1ccc2c(ccc3oc([N+](=O)[O-])cc32)c1` was tested, and the T/C [5] was 88 % of control, the T/C [6] was 96 % of control and the T/C [7] was 86 % of control.

With `O=C1C2CC(Cl)C(SSC3CC4C(=O)N(SC(Cl)(Cl)C(Cl)Cl)C(=O)C4CC3Cl)CC2C(=O)N1SC(Cl)(Cl)C(Cl)Cl` (centres undefined) the T/C (dose: 75.0 mg/kg/injection, schedule: Q04DX003 (ip), vehicle: Klucel (hydroxypropylcellulose) (HPC)) was 83 % of control, the T/C (dose: 150.0 mg/kg/injection, schedule: Q04DX003 (ip), vehicle: Klucel (hydroxypropylcellulose) (HPC)) was 102 % of control and the T/C (dose: 300.0 mg/kg/injection, schedule: Q04DX003 (ip), vehicle: Klucel (hydroxypropylcellulose) (HPC)) was 76 % of control. The T/C (dose: 600.0 mg/kg/injection, schedule: Q04DX003 (ip), vehicle: Klucel (hydroxypropylcellulose) (HPC)) was 48 % of control.

`CS(C)=O` was tested, and the T/C (dose: 750.0 mg/kg/injection, schedule: Q01DX010 (sc), vehicle: saline) was 88 % of control and the T/C (dose: 6000.0 mg/kg/injection, schedule: Q01DX010 (sc), vehicle: saline) was 67 % of control.

For `CCOC(C)C(/C=N/NC(N)=S)=NNC(N)=S` (centres undefined), the T/C [12] was 231 % of control, the T/C [11] was 233 % of control and the T/C (dose: 800.0 mg/kg/injection, schedule: Q01DX010 (sc), vehicle: saline with Tween-80) was 78 % of control.
